Molecules are shown by their SMILES. pIC50: −log10 of the molar value.

Seven molecules from ChEMBL document CHEMBL4808246 (Bioorg Med Chem, 2021) can be followed below.

Data set [1] addresses T1, Prostaglandin G/H synthase 2 (Homo sapiens, UniProt P35354).
T1 sequence (P35354 whole entry): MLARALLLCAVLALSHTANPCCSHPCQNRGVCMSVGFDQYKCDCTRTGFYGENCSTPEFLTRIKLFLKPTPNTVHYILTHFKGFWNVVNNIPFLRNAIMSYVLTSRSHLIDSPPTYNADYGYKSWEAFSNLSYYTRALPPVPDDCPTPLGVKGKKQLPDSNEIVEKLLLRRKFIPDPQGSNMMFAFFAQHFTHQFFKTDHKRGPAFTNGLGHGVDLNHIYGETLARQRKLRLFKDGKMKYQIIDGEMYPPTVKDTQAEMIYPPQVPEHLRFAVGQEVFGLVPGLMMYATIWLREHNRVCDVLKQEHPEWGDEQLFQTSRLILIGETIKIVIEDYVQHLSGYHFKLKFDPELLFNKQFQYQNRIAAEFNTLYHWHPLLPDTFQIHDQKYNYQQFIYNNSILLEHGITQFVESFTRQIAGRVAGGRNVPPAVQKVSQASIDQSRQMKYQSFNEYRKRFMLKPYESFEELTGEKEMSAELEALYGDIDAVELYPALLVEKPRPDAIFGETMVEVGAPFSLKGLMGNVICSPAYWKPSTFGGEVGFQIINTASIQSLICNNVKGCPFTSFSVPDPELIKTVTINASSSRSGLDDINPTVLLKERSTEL
The data set can be described thus: Inhibition of human recombinant COX-2 assessed as production of PGE2 using arachidonic acid as a substrate preincubated for 60 mins followed by substrate addition and measured after 2 mins by ELISA analysis.

For data set [2], the target named is T2, Prostaglandin G/H synthase 1 (Ovis aries) (UniProt P05979).
T2 sequence (whole entry): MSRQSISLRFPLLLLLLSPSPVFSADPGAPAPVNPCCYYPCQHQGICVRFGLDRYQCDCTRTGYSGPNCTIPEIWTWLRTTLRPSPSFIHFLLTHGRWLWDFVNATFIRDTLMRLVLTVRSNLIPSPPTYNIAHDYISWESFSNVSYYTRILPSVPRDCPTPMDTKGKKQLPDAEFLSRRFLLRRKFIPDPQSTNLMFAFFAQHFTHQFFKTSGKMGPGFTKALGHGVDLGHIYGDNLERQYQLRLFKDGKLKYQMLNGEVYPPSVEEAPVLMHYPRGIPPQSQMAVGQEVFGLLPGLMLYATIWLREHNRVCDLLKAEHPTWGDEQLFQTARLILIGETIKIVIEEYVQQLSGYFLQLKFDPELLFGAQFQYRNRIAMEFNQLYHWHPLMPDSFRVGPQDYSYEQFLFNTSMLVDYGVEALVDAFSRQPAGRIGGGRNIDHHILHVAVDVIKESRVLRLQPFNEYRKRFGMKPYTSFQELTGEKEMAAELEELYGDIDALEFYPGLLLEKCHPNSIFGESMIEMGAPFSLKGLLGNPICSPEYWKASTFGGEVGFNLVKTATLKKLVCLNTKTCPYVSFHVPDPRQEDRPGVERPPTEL
The data set can be described thus: Inhibition of ovine COX-1 assessed as production of PGE2 using arachidonic acid as a substrate preincubated for 60 mins at 100 uM followed by substrate addition and measured after 2 mins by ELISA analysis relative to control. To be noted: time 62.0 min.

For data set [3], the target named is T2, Prostaglandin G/H synthase 1 (Ovis aries). The data set can be described thus: Inhibition of ovine COX-1 assessed as production of PGE2 using arachidonic acid as a substrate preincubated for 60 mins at 10 uM followed by substrate addition and measured after 2 mins by ELISA analysis relative to control.
The target is the same in data set [4]. Put plainly: Inhibition of ovine COX-1 assessed as production of PGE2 using arachidonic acid as a substrate preincubated for 60 mins at 1 uM followed by substrate addition and measured after 2 mins by ELISA analysis relative to control.
Data set [5] has the same target. The data set can be described thus: Inhibition of ovine COX-1 assessed as production of PGE2 using arachidonic acid as a substrate preincubated for 60 mins at 0.1 uM followed by substrate addition and measured after 2 mins by ELISA analysis relative to control.
Data set [6] has as its target T3, Prostaglandin G/H synthase 1 (Ovis aries, UniProt P05979).
T3 sequence (P05979 whole entry): T2 sequence (whole entry)
Put plainly: Inhibition of ovine COX-1 assessed as production of PGE2 using arachidonic acid as a substrate preincubated for 60 mins followed by substrate addition and measured after 2 mins by ELISA analysis.

The nature of data set [7]: Selectivity index, ratio of IC50 for ovine COX-1 to IC50 for human COX-2.
The nature of data set [8]: Solubility of the compound in water. It counts as physicochemical. The settings on record: buffer.
Data set [9] deals with Mus musculus. The data set can be described thus: Antiinflammatory activity in mouse xylene induced ear edema model assessed as ear weight difference at 30 mg/kg, po once daily administered for 3 days prior to xylene stimulation and measured after 30 mins (reference value: 13.64 =/- 2.55 mg). The format is functional. To be noted: time 3 day.
Data set [10] deals with Mus musculus. The data set can be described thus: Antiinflammatory activity in mouse xylene induced ear edema model assessed as inhibition of auricular edemas at 30 mg/kg, po once daily administered for 3 days prior to xylene stimulation and measured after 30 mins relative to control. It counts as functional. The settings on record: 72 h, time 3 day.
Data set [11] relates to Mus musculus. The data set can be described thus: Analgesic activity in mouse model of acetic-acid induced writhing assessed as number of writhes at 30 mg/kg, po once daily administered for 3 days prior to acetic acid injection measured after 20 mins (reference value: 29.13+/-9.36). It counts as functional. To be noted: time 3 day.
Data set [12] has as its system Mus musculus. The data set can be described thus: Analgesic activity in mouse model of acetic-acid induced writhing assessed as inhibition of writhing at 30 mg/kg, po once daily administered for 3 days prior to acetic acid injection measured after 20 mins relative to control. To be noted: 72 h, time 3 day. The format is functional.
For data set [13], the system named is RAW264.7. Put plainly: Cytotoxicity against mouse RAW 264.7 cells assessed as decreased cell viability at 0.01 to 10 uM measured after 18 hrs by MTT assay. The format is cell-based. To be noted: raw264.7, 18 h, dose 0.01-10 µM.
For data set [14], the system named is RAW264.7. Put plainly: Cytotoxicity against mouse RAW 264.7 cells assessed as decreased cell viability at 100 uM measured after 18 hrs by MTT assay. It counts as cell-based. The settings on record: raw264.7, 18 h.
Data set [15] concerns RAW264.7. Put plainly: Inhibition of LPS induced NO production in mouse RAW264.7 cells at 0.01 uM in the presence of 500 ng/mL LPS measured after 24 hrs by Griess reagent based assay relative to control. The format is functional.
Data set [16] deals with RAW264.7. The data set can be described thus: Inhibition of LPS induced NO production in mouse RAW264.7 cells at 0.1 uM in the presence of 500 ng/mL LPS measured after 24 hrs by Griess reagent based assay relative to control. It counts as functional.
The test system of data set [17] is RAW264.7. The data set can be described thus: Inhibition of LPS induced NO production in mouse RAW264.7 cells at 1 uM in the presence of 500 ng/mL LPS measured after 24 hrs by Griess reagent based assay relative to control. It counts as functional.
The test system of data set [18] is RAW264.7. Put plainly: Inhibition of LPS induced NO production in mouse RAW264.7 cells at 10 uM in the presence of 500 ng/mL LPS measured after 24 hrs by Griess reagent based assay relative to control. The format is functional.
The subject of data set [19] is RAW264.7. Put plainly: Inhibition of LPS induced NO production in mouse RAW264.7 cells at 100 uM in the presence of 500 ng/mL LPS measured after 24 hrs by Griess reagent based assay relative to control. It counts as functional.
A short description of data set [20]: Acute oral toxicity in female kunming mouse assessed as signs of gross toxicity measured once daily for 14 days. The settings on record: in vivo, time 14 day.
Data set [21] can be described thus: Acute oral toxicity in female kunming mouse assessed as survival at 2000 mg/kg measured once daily for 14 days. It counts as organism-based. The settings on record: in vivo, 336 h, time 14 day.
A short description of data set [22]: Acute oral toxicity in female kunming mouse assessed as effect on liver histopathology at 2000 mg/kg measured once daily for 14 days. It counts as organism-based. To be noted: in vivo, 336 h, time 14 day.
Data set [23] in a line: Acute oral toxicity in female kunming mouse assessed as effect on kidney histopathology at 2000 mg/kg measured once daily for 14 days. The format is organism-based. To be noted: in vivo, 336 h, time 14 day.

As to `Cc1ccc(-c2cc(C)n(S(=O)(=O)Oc3ccccc3Cl)n2)cc1`, the pIC50 is 6.28 in [1] and under 4.00 in data set [6]. The inhibition in [2] came out at 33%; in [3] it was 26%; in data set [4], 24%; in data set [5], 20%. For the same molecule, in [7], the Ratio is over 189. In addition, in [8], the solubility result is given as “Insoluble”. The Activity is recorded as 9.96 mg in [9]; 15 in [11]; 80% in data set [13]; 80% in [14]; “Non-Toxic” in data set [21]; “Non-Toxic” in [22]. For the same molecule, the Activity result in [23] is on record as “Non-Toxic”. The inhibition in vivo at 30 mg/kg in data set [10] was found to be 27%; in data set [12] it was 48.5%. Further, in data set [15], the inhibition at 0.01 µM worked out at 12.6%. Moreover, in data set [16], the inhibition at 0.1 µM is 23.6%. Further, the inhibition at 1 µM in [17] was 23.8%. In [18], the inhibition at 10 µM was found to be 22%. For the same molecule, the inhibition at 100 µM in data set [19] stood at 29.4%. In [20], the median lethal dose (LD50) at 336 h was over 2000 mg/kg.
For the molecule `Cc1cc(-c2ccc(Br)cc2)nn1S(=O)(=O)Oc1ccccc1`, the negative-log IC50 (pIC50) in data set [1] was 6.70; in [6], 6.85. Also, the inhibition in [2] is 70%; in data set [3] it was 71%; in data set [4] it was 68%; in data set [5], 45%. Further, in data set [7], the Ratio was found to be 1.
For `Cc1ccc(-c2cc(C)n(S(=O)(=O)Oc3ccccc3)n2)cc1`, the pIC50 was 8.96 in [1] and 6.30 in [6]. Moreover, the inhibition in data set [2] was 70%; in data set [3], 72%; in data set [4], 55%; in [5] it was 34%. The Ratio in data set [7] worked out at 455. The solubility result in [8] was “Insoluble”. Also, the Activity in [9] amounted to 11.57 mg; in [11], 14.38. Further, the inhibition in vivo at 30 mg/kg in data set [10] stood at 15.2%; in data set [12], 50.7%. Moreover, the inhibition at 0.01 µM in data set [15] is 10.5%. Moreover, the inhibition at 0.1 µM in data set [16] was 18.1%. Moreover, in data set [17], the inhibition at 1 µM amounted to 19.3%. Also, the inhibition at 10 µM in data set [18] is 21.1%. The inhibition at 100 µM in data set [19] worked out at 31.6%. For the same molecule, in data set [20], the LD50 at 336 h was over 2000 mg/kg.
In the case of `Cc1ccc(-c2cc(C)n(S(=O)(=O)Oc3ccc(I)cc3)n2)cc1`, the negative logarithm of the IC50 (pIC50) was 8.04 in [1] and 4.02 in data set [6]. The inhibition amounted to 48% in [2], 41% in data set [3], 35% in data set [4] and 17% in data set [5]. Besides, the Ratio in data set [7] was 10500. Moreover, in data set [8], the solubility result is on record as “Insoluble”. Besides, the Activity in [9] is 9.96 mg; in data set [11], 24.13; in [13], “Non-Toxic”; in [14] it was 40%; in data set [21], “Non-Toxic”; in [22], “Non-Toxic”. Moreover, in data set [23], the Activity entry is recorded as “Non-Toxic”. Moreover, the inhibition in vivo at 30 mg/kg in data set [10] came to 27%; in data set [12], 17.2%.
On to `Cc1ccc(-c2cc(C(F)(F)F)nn2-c2ccc(S(N)(=O)=O)cc2)cc1` [CELECOXIB], for which the solubility entry in data set [8] was “Insoluble”. Moreover, the Activity in [9] was 9.79 mg; in [11], 18.63; in [13] it was 80%. Further, the inhibition in vivo at 30 mg/kg in [10] turned out to be 28.2%. The inhibition at 0.01 µM in data set [15] is 16.5%. Besides, the inhibition at 0.1 µM in [16] is 19.6%. Besides, the inhibition at 1 µM in data set [17] came to 16.5%. Moreover, the inhibition at 10 µM in data set [18] came out at 14.8%. Also, the inhibition at 100 µM in data set [19] is 50.2%.
Take `Cc1cc(-c2ccccn2)nn1S(=O)(=O)Oc1ccc(Cl)cc1`: the pIC50 in [1] is 8.24; in data set [6], 7.05. For the same molecule, the inhibition stood at 83% in data set [2], 80% in data set [3], 56% in data set [4] and 51% in data set [5]. Besides, in data set [7], the Ratio was 16.
Take `O=S(=O)(Oc1ccccc1)n1nc(-c2ccccc2)cc1-c1ccccc1`: the pIC50 was over 8.00 in [1] and 5.03 in data set [6]. For the same molecule, the inhibition in [2] stood at 68%; in data set [3] it was 44%; in data set [4], 36%; in data set [5] it was 27%. The Ratio in [7] is over 938. Also, the solubility result in [8] is given as “Insoluble”. In addition, the Activity in data set [9] worked out at 10.13 mg; in [11] it was 17.75. Further, the inhibition in vivo at 30 mg/kg is 25.7% in data set [10] and 39.1% in [12].
